Molecules are shown by their SMILES.

In turn, `Cc1cc(-c2csc(-c3cccc(C(=O)O)c3)n2)c(C)s1` [Example 92, 3-[4-(2,5-dimethyl-3-thienyl)-2-thiazolyl]benzoic acid] showed a melting point of 155 to 156 °C.
Then `CCOC(=O)c1ccc(-c2coc(-c3ccccc3)n2)cc1` [Example 5, ethyl 4-(2-phenyl-4-oxazolyl)benzoate], with 110 to 112 °C; and `CC(C)(C)c1ccc(-c2csc(-c3cccc(C(=O)O)c3)n2)cc1` [Example 98, 3-[4-(4-t-butylphenyl)-2-thiazolyl]benzoic acid], with 250 to 251 °C.
The value for `CCOC(=O)c1ccc(-c2csc(-c3ccc(C(F)(F)F)cc3)n2)cc1` [Example 104, ethyl 4-[2-(4-trifluoromethylphenyl)-4-thiazolyl)benzoate] was 163 to 164 °C; that for `CCOC(=O)c1cccc(-c2nc(-c3ccc(C(C)(C)C)cc3)cs2)c1` [Example 84, ethyl 3-[4-(4-t-butylphenyl)-2-thiazolyl]benzoate] was 96 to 97 °C.
Then `COC(=O)c1ccc(-c2nc(-c3ccc(C(C)(C)C)cc3)cs2)cc1` [Example 85, methyl 4-[4-(4-t-butylphenyl)-2-thiazolyl]benzoate], with 154 to 155 °C; and `O=C(O)c1ccc(-c2nc(-c3cccc(C(F)(F)F)c3)co2)cc1` [Example 22, 4-[4-(3-trifluoromethylphenyl)-2-oxazolyl]benzoic acid], with 253 to 254 °C.
`COC(=O)c1ccc(-c2nc(-c3ccc(OC(F)(F)F)cc3)cs2)cc1` [Example 41, methyl 4-[4-(4-trifluoromethoxyphenyl)-2-thiazolyl]benzoate] showed a melting point of 138 to 139 °C.
The value for `CCOC(=O)c1cccc(-c2nc(-c3ccc(C(C)C)cc3)cs2)c1` [Example 86, ethyl 3-[4-(4-isopropylphenyl)-2-thiazolyl]benzoate] was 91 to 92 °C; that for `COC(=O)c1ccc(-c2nc(-c3ccc(OC)cc3)co2)cc1` [Example 3, methyl 4-[4-(4-methoxyphenyl)-2-oxazolyl]benzoate] was 200 to 202 °C.
As for `CCOc1ccc(-c2csc(-c3cccc(C(=O)OC)c3)n2)cc1` [Example 83, methyl 3-[4-(4-ethoxyphenyl)-2-thiazolyl]benzoate], the melting point was in the range of 192 to 193 °C.
On to `Br.CCOC(=O)c1ccc(-c2csc(-c3ccncc3)n2)cc1` [Example 105, ethyl 4-[2-(4-pyridyl)-4-thiazolyl)benzoate hydrobromide], for which the melting point is 247 to 248 °C.
The value for `COC(=O)c1ccc(-c2nc(-c3ccc(OC(F)F)cc3)co2)cc1` [Example 18, methyl 4-[4-(4-difluoromethoxylphenyl)-2-oxazolyl]benzoate] was 160 to 161 °C.
The value for `COC(=O)c1ccc(-c2nc(-c3cc(C(F)(F)F)cc(C(F)(F)F)c3)co2)cc1` [Example 17, methyl 4-[4-[3,5-bis(trifluoromethyl)phenyl]-2-oxazolyl]benzoate] was 180 to 181 °C; that for `Cc1cc(-c2csc(-c3ccc(C(=O)O)cc3)n2)c(C)o1` [Example 91, 4-[4-(2,5-dimethyl-3-furyl)-2-thiazolyl]benzoic acid] was 264 to 265 °C.
Then `Br.CCOC(=O)c1ccc(-c2csc(-c3cccnc3)n2)cc1` [Example 31, ethyl 4-[2-(3-pyridyl)-4-thiazolyl]benzoate hydrobromide], with 234 to 236 °C; and `Br.COC(=O)c1ccc(-c2nc(-c3ccncc3)cs2)cc1` [Example 35, methyl 4-[4-(4-pyridyl)-2-thiazolyl]benzoate hydrobromide], with 238 to 240 °C; and `O=C(O)c1ccc(-c2nc(-c3ccncc3)cs2)cc1` [Example 58, 4-[4-(4-pyridyl)-2-thiazolyl]benzoic acid], with above 300 °C.
`CCCCc1ccc(-c2csc(-c3ccc(C(=O)O)cc3)n2)cc1` [Example 99, 4-[4-(4-butylphenyl)-2-thiazolyl]benzoic acid] showed a melting point of 263 to 265 °C.
The value for `CCOC(=O)c1ccc(-c2ncc(-c3ccc(Cl)cc3)s2)cc1` [Example 112, ethyl 4-[5-(4-chlorophenyl)-2-thiazolyl]benzoate] was 167 to 168 °C.
The value for `CCOC(=O)c1cccc(-c2nc(-c3ccc(C)c(C)c3)cs2)c1` [Example 76, ethyl 3-[4-(3,4-dimethylphenyl)-2-thiazolyl]-benzoate] was 147 to 148 °C.
`O=C(O)c1cccc(-c2nc(-c3ccc(C(F)(F)F)cc3)cs2)c1` [Example 67, 3-[4-(4-trifluoromethylphenyl)-2-thiazolyl]benzoic acid] displayed a melting point of 230 to 231 °C.
As for `O=C(O)c1ccc(-c2coc(-c3cccc(C(F)(F)F)c3)n2)cc1` [Example 26, 4-[2-(3-trifluoromethylphenyl)-4-oxazolyl]benzoic acid], the melting point was 268 to 269 °C.
Then `CCOC(=O)c1ccc(-c2csc(-c3ccc(Cl)cc3)n2)s1` [Example 39, ethyl 5-[2-(4-chlorophenyl)-4-thiazolyl]-2-thienylcarboxylate], with 234 to 236 °C; and `CCOC(=O)c1cccc(-c2nc(-c3cc(Cl)sc3Cl)cs2)c1` [Example 81, ethyl 3-[4-(2,5-dichloro-3-thienyl)-2-thiazolyl]benzoate], with 125 to 126 °C; and `COC(=O)c1cccc(-c2nc(-c3cccc(OC(F)(F)F)c3)cs2)c1` [Example 50, methyl 3-[4-(3-trifluoromethoxyphenyl)-2-thiazolyl]benzoate], with 84 to 85 °C.
The value for `O=C(O)c1ccc(-c2nc(-c3ccc(Cl)s3)co2)cc1` [Example 14, 4-[4-(5-chloro-2-thienyl)-2-oxazolyl]benzoic acid] was at least 300 °C; that for `CC(C)c1ccc(-c2csc(-c3ccc(C(=O)O)cc3)n2)cc1` [Example 101, 4-[4-(4-isopropylphenyl)-2-thiazolyl]benzoic acid] was 257 to 258 °C.
Then `CCOC(=O)c1ccc(-c2csc(-c3ccccc3)n2)cc1` [Example 102, ethyl 4-(2-phenyl-4-thiazolyl]benzoate], with 72 to 73 °C; and `CCOC(=O)c1cccc(-c2nc(-c3ccc(C)c(C)c3)cs2)c1` [Example 74, ethyl 3-[4-(3,4-dimethylphenyl)-2-thiazolyl]benzoate], with 114 to 115 °C; and `COC(=O)c1ccc(-c2nc(-c3cc(C)oc3C)cs2)cc1` [Example 77, methyl 4-[4-(2,5-dimethyl-3-furyl)-2-thiazolyl]benzoate], with 103 to 105 °C.
Consider `COC(=O)c1ccc(-c2nc(-c3cc(C)sc3C)cs2)cc1` [Example 79, methyl 4-[4-(2,5-dimethyl-3-thienyl)-2-thiazolyl]benzoate], for which the melting point was 109 to 110 °C.
The value for `O=C(O)c1cccc(-c2nc(-c3ccc(F)c(F)c3)cs2)c1` [Example 71, 3-[4-(3,4-difluorophenyl)-2-thiazolyl]benzoic acid] was 255 to 256 °C; that for `O=C(O)c1cccc(-c2nc(-c3ccc(Cl)cc3)cs2)c1` [compound 12, 3-[4-(4-chlorophenyl)-2-thiazolyl]benzoic acid] was 265 to 266 °C.
`O=C(O)c1ccc(-c2nc(-c3ccc(Cl)s3)cs2)cc1` [Example 53, 4-[4-(5-chloro-2-thienyl)-2-thiazolyl]benzoic acid] yielded a melting point of 283 to 284 °C.
`O=C(O)c1cccc(-c2nc(-c3ccc(C(F)(F)F)cc3)co2)c1` [Example 27, 3-[4-(4-trifluoromethylphenyl)-2-oxazolyl]benzoic acid] registered a melting point of 206 to 208 °C.
Then `O=C(O)c1ccc(-c2csc(-c3cccnc3)n2)cc1` [Example 54, 4-[2-(3-pyridyl)-4-thiazolyl]benzoic acid], with above 300 °C.
Then `COC(=O)c1cccc(-c2nc(-c3ccc(C(F)(F)F)cc3)cs2)c1` [Example 44, methyl 3-[4-(4-trifluoromethylphenyl)-2-thiazolyl]benzoate], with 142 to 143 °C; and `Cc1ccc(-c2csc(-c3cccc(C(=O)O)c3)n2)cc1C` [Example 88, 3-[4-(3,4-dimethylphenyl)-2-thiazolyl]benzoic acid], with 235 to 236 °C; and `O=C(O)c1ccc(-c2nc(-c3ccccc3)co2)cc1` [Example 11, 4-(4-phenyl-2-oxazolyl]benzoic acid], with 275 to 276 °C.
As to `O=C(O)c1ccc(-c2csc(-c3ccc(Cl)cc3)n2)cc1` [compound 10, 4-[2-(4-chlorophenyl)-4-thiazolyl]benzoic acid], the melting point lay within 284 to 285 °C.
Then `COC(=O)c1ccc(-c2nc(-c3ccc(Cl)cc3)co2)cc1` [Example 1, methyl 4-[4-(4-chlorophenyl)-2-oxazolyl]benzoate], with 183 to 184 °C; and `Cc1ccc(-c2csc(-c3ccc(C(=O)O)cc3)n2)cc1C` [Example 90, 4-[4-(3,4-dimethylphenyl)-2-thiazolyl]benzoic acid], with 261 to 262 °C; and `COC(=O)c1ccc(-c2nc(-c3ccc(Cl)s3)cs2)cc1` [Example 30, methyl 4-[4-(5-chloro-2-thienyl)-2-thiazolyl]benzoate], with 171 to 172 °C.
Take `CCOC(=O)c1ccc(-c2cnc(-c3ccc(C(F)(F)F)cc3)o2)cc1` [Example 107, ethyl 4-[2-(4-trifluoromethylphenyl)-5-oxazolyl]benzoate]: the melting point was 142 to 143 °C.
Then `O=C(O)c1ccc(-c2csc(-c3ccccc3)n2)cc1` [Reference Example 9, 4-(2-phenyl-4-thiazolyl]benzoic acid], with 245 to 248 °C; and `O=C(O)c1ccc(-c2nc(-c3ccccc3C(F)(F)F)cs2)cc1` [Example 60, 4-[4-(2-trifluoromethylphenyl)-2-thiazolyl]benzoic acid], with 225 to 227 °C.
The value for `COc1ccc(-c2coc(-c3ccc(C(=O)O)cc3)n2)cc1` [Example 10, 4-[4-(4-methoxyphenyl)-2-oxazolyl]benzoic acid] was 286 to 287 °C.

In general, melting point refers to the temperature of the solid-liquid transition.

The values above are taken from patent US6545009B1, “Retinoid-related receptor function regulating agent” (Takeda Chemical Industries, Ltd., priority 1998, dated 2003).
